Data from PubChem BioAssay AID588821 (The Scripps Research Institute Molecular Screening Center, 2011).
Activity calls are given as the source filed them.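 The calls were made as follows: active = IC50 at or below 10 µM; inactive = IC50 above 10 µM.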

Tested on: HEK293T GAL4DBD-only luciferase reporter, luminescence counterscreen
Experiment: compounds suppressing UAS/Gal4-driven luciferase signal – cell-based, luminescence, HEK293T, empty GAL4DBD, dose response, counter-screen for DAX1 inhibitor project, late-stage follow-up (AID 588821)

| SMILES | IC50 |
| --- | --- |
| COc1cccc(C(=O)NC(C)c2cc(OC)ccc2OC)c1 (centres undefined) | > 69.5 µM (inactive) |
| COc1ccc(OC)c(C(C)NC(=O)c2cccc3ccccc23)c1 (centres undefined) | > 69.5 µM (inactive) |
| COc1ccc(OC)c(C(C)NC(=O)c2ccc(Cl)cc2)c1 (centres undefined) | > 69.5 µM (inactive) |
| COc1ccc(OC)c(C(C)NC(=O)c2cccc(F)c2)c1 (centres undefined) | > 69.5 µM (inactive) |
| COc1ccc(OC)c(C(C)NC(=O)c2ccc(C)cc2)c1 (centres undefined) | > 69.5 µM (inactive) |
| COc1ccc(OC)c(C(C)NC(=O)c2c(F)cccc2Cl)c1 (centres undefined) | > 69.5 µM (inactive) |
| COc1ccc(OC)c(C(C)NC(=O)c2ccc(C(C)(C)C)cc2)c1 (centres undefined) | > 69.5 µM (inactive) |
| COc1ccc(OC)c(C(C)NC(=O)c2ccc(F)cc2)c1 (centres undefined) | > 69.5 µM (inactive) |
| COc1ccc(OC)c(C(C)NC(=O)c2ccccc2F)c1 (centres undefined) | > 69.5 µM (inactive) |
| Cn1c(=O)n(C)c2cc(C(=O)Nc3ccc4c(c3)OCO4)ccc21 | > 69.5 µM (inactive) |
| CSc1ccccc1C(=O)Nc1ccc2c(c1)OCO2 | > 69.5 µM (inactive) |
| COc1ccc(OC)c(C(C)NC(=O)c2ccc3c(c2)OCCO3)c1 (centres undefined) | > 69.5 µM (inactive) |
| COc1ccc(OC)c(C(C)NC(=O)c2ccccc2C)c1 (centres undefined) | > 69.5 µM (inactive) |
| COc1ccc(OC)c(C(C)NC(=O)c2ccccc2Cl)c1 (centres undefined) | > 69.5 µM (inactive) |
| O=C(Cc1cccs1)Nc1ccc2c(c1)OCO2 | > 69.5 µM (inactive) |
| O=C(Nc1ccc2c(c1)OCO2)c1ccc(C2SCC(=O)N2Cc2ccccc2)cc1 (centres undefined) | > 69.5 µM (inactive) |
| COc1ccc(OC)c(C(C)NC(=O)c2cccc(C)c2)c1 (centres undefined) | > 69.5 µM (inactive) |
| COc1ccc(OC)c(C(C)NC(=O)c2ccccc2)c1 (centres undefined) | > 69.5 µM (inactive) |
| CSc1ccccc1C(=O)Nc1ccc2c(c1)OCCO2 | > 69.5 µM (inactive) |
| O=C(Nc1ccc2c(c1)OCO2)c1ccc2ccccc2c1 | 0.202 µM |
| Cc1occc1C(=O)Nc1ccc2c(c1)OCO2 | > 69.5 µM (inactive) |
| O=C(Nc1ccc2c(c1)OCO2)c1cccs1 | > 69.5 µM (inactive) |
| O=C(Nc1ccc2c(c1)OCO2)c1ccc(C2SCC(=O)N2Cc2ccco2)cc1 (centres undefined) | > 69.5 µM (inactive) |
| Cn1c(=O)n(C)c2cc(C(=O)Nc3ccc4c(c3)OCCO4)ccc21 | > 69.5 µM (inactive) |
